Patent US20210101881A1 (Ancureall Pharmaceutical (Shanghai) Co., Ltd., priority 2018, published 2021)

What follows are compounds tested on MOLM13 cells (assay: Growth inhibition of CDK9-positive cell line MOLM13 in vitro (CCK8/MTT assay)). Conditions: Homo sapiens, MOLM-13; MOLM13 cells, cultured 3 to 6 days, CCK8; read-out: IC50 of the compound for inhibiting cell growth, MOLM13 cells.
Format: cell-based, human
Protocol: 1. MOLM13 cell line and cell culture MOLM13 is a CDK9-positive human acute myeloid leukemia cell line from DMSZ. Suspension culture was carried out in RPMI1640 (Gibco) medium with 10% fetal bovine serum (Gibco), 1% penicillin-streptomycin and 2 mM glutamine.
Suspended MOLM-13 cells in logarithmic growth phase were collected by centrifugation (1700 rpm, 3 minutes), the supernatant was discarded, and the cells were counted. A solution with a cell concentration of 2×10^5 cells per milliliter was formulated and inoculated in a 96-well plate (Corning) with 100 microliters per well. The plate was incubated at 37° C., 5% CO2 overnight. On the next day, the test compound was added to the cultured cells in two parallel wells. […]
The present compound and the control compounds were respectively dissolved in DMSO (Sigma).
When the solvent control well became dark yellow, the OD450 nm absorption value was measured, and the cell growth rate was calculated according to the following formula. Cell growth rate %=100*(T−T0)/(C−T0), wherein T=the optical density value of the drug-treated well—the optical density value of the blank control well, T0=the optical density value of the well before drug treatment—the optical density value of the blank control well, C=the optical density value of the solvent control well—the optical density value of the blank control well. […] The assay was repeated three times, and the data was subjected to a biological statistical analysis.

IC50 [nM]	Structure (SMILES)
1 to 10	CN(C)CCN(C)c1cccc(Nc2nccc(-n3cc(C(N)=O)c4ccccc43)n2)c1 [Compound 110, 1-(2-{3-[(2-dimethylamino-ethyl)-methyl-amino]-phenylamino}-pyrimidin-4-yl)-1H-indole-3-carboxamide]
10 to 100	NC(=O)c1cn(-c2ccnc(Nc3ccc(OCCN4CCCC4)cc3)n2)c2ccccc12 [Compound 20, 1-{2-[4-(2-pyrrolidin-1-yl-ethoxy)-phenylamino]-pyrimidin-4-yl}-1H-indole-3-carboxamide]
> 1000	NC(=O)c1cn(-c2ccnc(Nc3ccc(C(F)(F)F)c(Cl)c3)n2)c2ccccc12 [Compound 2, 1-[2-(3-chloro-4-trifluoromethyl-phenylamino)-pyrimidin-4-yl]-1H-indole-3-carboxamide]
1 to 10	CCN1CCN(c2ccc(Nc3ncc(F)c(-n4cc(C(N)=O)c5ccccc54)n3)cc2C)CC1 [Compound 57, 1-{2-[4-(4-ethyl-piperazin-1-yl)-3-methyl-phenylamino]-5-fluoro-pyrimidin-4-yl}-1H-indole-3-carboxamide]
10 to 100	CCC(C)N1CCN(c2cccc(Nc3ncc(F)c(-n4cc(C(N)=O)c5ccccc54)n3)c2)CC1 (stereo not shown) [Compound 145, 1-{2-[3-(4-sec-butyl-piperazin-1-yl)-phenylamino]-5-fluoro-pyrimidin-4-yl}-1H-indole-3-carboxamide]
< 1	COc1cc(Nc2ncc(Cl)c(-n3cc(C(N)=O)c4ccccc43)n2)ccc1N1CCNCC1 [Compound 43, 1-[5-chloro-2-(3-methoxy-4-piperazin-1-yl-phenylamino)-pyrimidin-4-yl]-1H-indole-3-carboxamide]
1 to 10	NC(=O)c1cn(-c2ccnc(Nc3cccc(N4CCNCC4)c3)n2)c2ccccc12 [Compound 111, 1-[2-(3-piperazin-1-yl-phenylamino)-pyrimidin-4-yl]-1H-indole-3-carboxamide]
1 to 10	COc1ccc2c(c1)c(C(N)=O)cn2-c1nc(Nc2cccc(N3CCN(C(C)C)CC3)c2)ncc1F [Compound 159, 1-{5-fluoro-2-[3-(4-isopropyl-piperazin-1-yl)-phenylamino]-pyrimidin-4-yl}-5-methoxy-1H-indole-3-carboxamide]
1 to 10	CC(C)Oc1cc(Nc2nccc(-n3cc(C(N)=O)c4ccccc43)n2)ccc1N(C)CCN(C)C [Compound 81, 1-(2-{4-[(2-dimethylamino-ethyl)-methyl-amino]-3-isopropoxy-phenylamino}-pyrimidin-4-yl)-1H-indole-3-carboxamide]
1 to 10	Cc1cc(Nc2nccc(-n3cc(C(N)=O)c4ccccc43)n2)ccc1N1CCC(N(C)C)CC1 [Compound 68, 1-{2-[4-(4-dimethylamino-piperidin-1-yl)-3-methyl-phenylamino]-pyrimidin-4-yl}-1H-indole-3-carboxamide]
1 to 10	Cc1cnc(Nc2ccc(N3CCNCC3)cc2)nc1-n1cc(C(N)=O)c2ccccc21 [Compound 37, 1-[5-methyl-2-(4-piperazin-1-yl-phenylamino)-pyrimidin-4-yl]-1H-indole-3-carboxamide]
10 to 100	COc1cc(Nc2nccc(-n3cc(C(N)=O)c4ccccc43)n2)ccc1N1CCN(C)CC1 [Compound 48, 1-{2-[3-methoxy-4-(4-methyl-piperazin-1-yl)-phenylamino]-pyrimidin-4-yl}-1H-indole-3-carboxamide]
1 to 10	COc1cnc(Nc2cccc(N3CCN(C)CC3)c2)nc1-n1cc(C(N)=O)c2ccccc21 [Compound 123, 1-{5-methoxy-2-[3-(4-methyl-piperazin-1-yl)-phenylamino]-pyrimidin-4-yl}-1H-indole-3-carboxamide]
10 to 100	CN1CCN(c2c(F)cc(Nc3nccc(-n4cc(C(N)=O)c5ccccc54)n3)cc2F)CC1 [Compound 47, 1-{2-[3,5-difluoro-4-(4-methyl-piperazin-1-yl)-phenylamino]-pyrimidin-4-yl}-1H-indole-3-carboxamide]
< 1	CC(C)(C)N1CCN(c2cccc(Nc3ncc(F)c(-n4cc(C(N)=O)c5ccccc54)n3)c2)CC1 [Compound 147, 1-{2-[3-(4-tert-butyl-piperazin-1-yl)-phenylamino]-5-fluoro-pyrimidin-4-yl}-1H-indole-3-carboxamide]
1 to 10	NC(=O)c1cn(-c2nc(Nc3ccc(N4CCNCC4)c(F)c3)ncc2F)c2ccccc12 [Compound 41, 1-[5-fluoro-2-(3-fluoro-4-piperazin-1-yl-phenylamino)-pyrimidin-4-yl]-1H-indole-3-carboxamide]
10 to 100	NC(=O)c1cn(-c2ccnc(Nc3ccc(NCCN4CCCCC4)cc3)n2)c2ccccc12 [Compound 10, 1-{2-[4-(2-piperidin-1-yl-ethylamino)-phenylamino]-pyrimidin-4-yl}-1H-indole-3-carboxamide]

IC50 [nM]	Structure (SMILES)
10 to 100	C=CC(=O)N1CCN(c2cccc(Nc3nccc(-n4cc(C(N)=O)c5ccccc54)n3)c2)CC1 [Compound 127, 1-{2-[3-(4-acryloyl-piperazin-1-yl)-phenylamino]-pyrimidin-4-yl}-1H-indole-3-carboxamide]
10 to 100	NC(=O)c1cn(-c2ccnc(Nc3ccc(NCCN4CCOCC4)cc3)n2)c2ccccc12 [Compound 9, 1-{2-[4-(2-morpholin-4-yl-ethylamino)-phenylamino]-pyrimidin-4-yl}-1H-indole-3-carboxamide]
100 to 1000	CN(C)c1ccc(Nc2nccc(-n3cc(C(N)=O)c4ccccc43)n2)cc1 [Compound 75, 1-[2-(4-dimethylamino-phenylamino)-pyrimidin-4-yl]-1H-indole-3-carboxamide]
10 to 100	CCN1CCN(c2cccc(Nc3ncc(F)c(-n4cc(C(N)=O)c5cc(OCCN6CCOCC6)ccc54)n3)c2)CC1 [Compound 168, 1-{2-[3-(4-ethyl-piperazin-1-yl)-phenylamino]-5-fluoro-pyrimidin-4-yl}-5-(2-morpholin-4-yl-ethoxy)-1H-indole-3-carboxamide]
1 to 10	COc1cnc(Nc2ccc(N3CCNCC3)cc2)nc1-n1cc(C(N)=O)c2ccccc21 [Compound 36, 1-[5-methoxy-2-(4-piperazin-1-yl-phenylamino)-pyrimidin-4-yl]-1H-indole-3-carboxamide]
10 to 100	CN1CCN(Cc2cccc(Nc3ncc(F)c(-n4cc(C(N)=O)c5ccccc54)n3)c2)CC1 [Compound 143, 1-{5-fluoro-2-[3-(4-methyl-piperazin-1-ylmethyl)-phenylamino]-pyrimidin-4-yl}-1H-indole-3-carboxamide]
< 1	NC(=O)c1cn(-c2nc(Nc3ccc(N4CCNCC4)cc3)ncc2F)c2ccccc12 [Compound 35, 1-[5-fluoro-2-(4-piperazin-1-yl-phenylamino)-pyrimidin-4-yl]-1H-indole-3-carboxamide]
> 1000	NC(=O)c1cn(-c2ccnc(Nc3ccc(F)c(Br)c3)n2)c2ccccc12 [Compound 1, 1-[2-(3-bromo-4-fluoro-phenylamino)-pyrimidin-4-yl]-1H-indole-3-carboxamide]
1 to 10	NC(=O)c1nn(-c2ccnc(Nc3cccc(N4CCNCC4)c3)n2)c2ccccc12 [Compound 138, 1-[2-(3-piperazin-1-yl-phenylamino)-pyrimidin-4-yl]-1H-indazole-3-carboxamide]
1 to 10	COc1ccc2c(c1)c(C(N)=O)cn2-c1nc(Nc2cccc(N3CCN(C4CCOCC4)CC3)c2)ncc1F [Compound 149, 1-(5-fluoro-2-{3-[4-(tetrahydro-pyran-4-yl)-piperazin-1-yl]-phenylamino}-pyrimidin-4-yl)-5-methoxy-1H-indole-3-carboxamide]
10 to 100	COCCN1CCN(c2ccc(Nc3nccc(-n4cc(C(N)=O)c5ccccc54)n3)cc2)CC1 [Compound 26, 1-(2-{4-[4-(2-methoxy-ethyl)-piperazin-1-yl]-phenylamino}-pyrimidin-4-yl)-1H-indole-3-carboxamide]
10 to 100	CN(C)CCNc1ccc(Nc2nccc(-n3cc(C(N)=O)c4ccccc43)n2)cc1 [Compound 8, 1-{2-[4-(2-dimethylamino-ethylamino)-phenylamino]-pyrimidin-4-yl}-1H-indole-3-carboxamide]
10 to 100	NC(=O)c1cn(-c2ccnc(Nc3ccc(N4CCNCC4)cc3)n2)c2c(F)cccc12 [Compound 31, 7-fluoro-1-[2-(4-piperazin-1-yl-phenylamino)-pyrimidin-4-yl]-1H-indole-3-carboxamide]
10 to 100	NC(=O)c1cn(-c2ccnc(Nc3ccc(N4CCOCC4)c(F)c3)n2)c2ccccc12 [Compound 71, 1-[2-(3-fluoro-4-morpholin-4-yl-phenylamino)-pyrimidin-4-yl]-1H-indole-3-carboxamide]
10 to 100	CNC(=O)c1cn(-c2ccnc(Nc3ccc(C4CCNCC4)cc3)n2)c2ccccc12 [Compound 105, 1-[2-(4-piperidin-4-yl-phenylamino)-pyrimidin-4-yl]-1H-indole-3-carboxmethylamide]
1 to 10	CN(C)CCN(C)c1ccc(Nc2ncc(Cl)c(-n3cc(C(N)=O)c4ccccc43)n2)cc1 [Compound 85, 1-(5-chloro-2-{4-[(2-dimethylamino-ethyl)-methyl-amino]-phenylamino}-pyrimidin-4-yl)-1H-indole-3-carboxamide]
< 1	CCN1CCN(c2ccc(Nc3ncc(Cl)c(-n4cc(C(N)=O)c5ccccc54)n3)cc2C)CC1 [Compound 58, 1-{5-chloro-2-[4-(4-ethyl-piperazin-1-yl)-3-methyl-phenylamino]-pyrimidin-4-yl}-1H-indole-3-carboxamide]
